TGI and GI50 data for 8 molecules are collected here from PubChem BioAssay (NCI).

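Step 1: Grow cells in 96-well plates. Step 2: Expose to compound for 48 hours at 5 concentrations. Step 3: Interpolate endpoints linearly; if unreached, use highest concentration. The concentration for 50% growth inhibition is given as GI50. The concentration for full growth arrest is given as TGI.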

Among the test systems are HCC-2998 colon; HS 578T breast; SN12C renal; OVCAR-5 ovarian; UACC-62 melanoma; MCF7 breast; 786-0 renal; NCI-H23 lung; K-562 leukemia; MDA-MB-231 breast.
What all share (assay): NCI anticancer screen, dose series, 48 h

Take `Cc1cc(N=C2C=C(Br)C(=O)C(Br)=C2)cc(CN(CC(=O)O)CC(=O)O)c1O`: the TGI with HCC-2998 colon, in the experiment on HS 578T breast, with SN12C renal, with OVCAR-5 ovarian, with UACC-62 melanoma and in the experiment with MCF7 breast was greater than 100 µM throughout. The TGI in the experiment with 786-0 renal, with NCI-H23 lung, with K-562 leukemia and with MDA-MB-231 breast was greater than 100 µM throughout.

Take `Cn1cc(-c2ccc3nnc(Sc4ccc5ncccc5c4)n3n2)cn1`: the GI50 in the experiment with HCC-2998 colon was greater than 100 µM; in the experiment on HS 578T breast, 10.4 µM; in the experiment on SN12C renal, greater than 73.9 µM; in the experiment on OVCAR-5 ovarian, 61.9 µM; in the experiment with UACC-62 melanoma, greater than 100 µM; in the experiment on MCF7 breast it was 97.5 µM. Moreover, the GI50 with 786-0 renal was greater than 100 µM; with NCI-H23 lung it was 56 µM; in the experiment on K-562 leukemia, 38.4 µM; in the experiment on MDA-MB-231 breast, 24.4 µM. Besides, the TGI is greater than 100 µM with HCC-2998 colon; greater than 72.1 µM in the experiment with HS 578T breast; greater than 100 µM in the experiment on SN12C renal; greater than 100 µM with OVCAR-5 ovarian; greater than 100 µM in the experiment with UACC-62 melanoma; greater than 100 µM in the experiment with MCF7 breast. Besides, the TGI is greater than 100 µM with 786-0 renal, greater than 100 µM in the experiment with NCI-H23 lung, greater than 100 µM with K-562 leukemia and 96.9 µM in the experiment with MDA-MB-231 breast.

Turning to `COc1ccc(-c2nc(-c3nc4ccc(F)cc4[nH]3)c3ccccn23)cc1`, the GI50 in the experiment on HCC-2998 colon is 6.59 µM; in the experiment on HS 578T breast it was 8.54 µM; in the experiment on SN12C renal, 13.3 µM; with OVCAR-5 ovarian, 45.2 µM; with UACC-62 melanoma, 5.41 µM; with MCF7 breast it was 6.15 µM. Moreover, the GI50 with 786-0 renal is 8.82 µM; with NCI-H23 lung, 18.7 µM; in the experiment on K-562 leukemia, 14 µM; in the experiment with MDA-MB-231 breast, 4.34 µM. Besides, the TGI is greater than 100 µM with HCC-2998 colon; greater than 100 µM in the experiment with HS 578T breast; greater than 100 µM in the experiment with SN12C renal; greater than 100 µM in the experiment with OVCAR-5 ovarian; 36.1 µM with UACC-62 melanoma; greater than 100 µM in the experiment with MCF7 breast. Also, the TGI is 61.5 µM with 786-0 renal, greater than 100 µM in the experiment on NCI-H23 lung, greater than 100 µM with K-562 leukemia and 30.4 µM in the experiment with MDA-MB-231 breast.

`O=P1(S)OC[C@H]2O[C@@H]3[C@H](F)[C@@H]2OP(O)(=S)OC[C@H]2O[C@H]([C@H](F)[C@@H]2O1)n1cnc2c(ncnc21)NC/C=C/CNc1ncnc2c1ncn23` (stereo partly specified): the GI50 is greater than 100 µM with HCC-2998 colon; greater than 100 µM with HS 578T breast; greater than 100 µM with SN12C renal; greater than 44.1 µM in the experiment with OVCAR-5 ovarian; greater than 100 µM in the experiment with UACC-62 melanoma; greater than 100 µM with MCF7 breast. The GI50 with 786-0 renal, in the experiment with NCI-H23 lung, in the experiment with K-562 leukemia and in the experiment on MDA-MB-231 breast was greater than 100 µM in each case. Further, the TGI in the experiment with HCC-2998 colon, with HS 578T breast, in the experiment on SN12C renal, in the experiment on OVCAR-5 ovarian, with UACC-62 melanoma and with MCF7 breast was greater than 100 µM in each case. Besides, the TGI in the experiment on 786-0 renal, with NCI-H23 lung, with K-562 leukemia and in the experiment with MDA-MB-231 breast was greater than 100 µM throughout.

For the molecule `COC(=O)C1C(O)C(C)C(O)C(C)C=C(C)C2=C3C(=C(C)C(=O)c4c(O)c(c(C)c(OC(C)=O)c43)NC(=O)C(C)=C/C=C\C(C)C(O)C(C)C1O)OCO2` (stereo unspecified), the TGI in the experiment with HCC-2998 colon is greater than 100 µM; with HS 578T breast it was greater than 100 µM; in the experiment with SN12C renal it was greater than 100 µM; in the experiment with OVCAR-5 ovarian, greater than 100 µM; with UACC-62 melanoma, 74.5 µM; with MCF7 breast it was 58.7 µM. Further, the TGI was greater than 100 µM in the experiment on 786-0 renal, 63 µM in the experiment with NCI-H23 lung, 47.5 µM with K-562 leukemia and 77.6 µM in the experiment on MDA-MB-231 breast.

`O=C1CCC(N2C(=O)c3ccccc3C2=O)C(=O)N1` (stereo unspecified): the TGI in the experiment with HCC-2998 colon, in the experiment with HS 578T breast, in the experiment on SN12C renal, with OVCAR-5 ovarian, in the experiment with UACC-62 melanoma and with MCF7 breast was greater than 100 µM throughout. Further, the TGI in the experiment with 786-0 renal, in the experiment with NCI-H23 lung, in the experiment with K-562 leukemia and with MDA-MB-231 breast was greater than 100 µM throughout. In addition, the GI50 in the experiment with MDA-MB-231 breast was greater than 100 µM.

For `O=c1[nH]c2ccccc2n1CCCN1CCC(n2c(=O)[nH]c3cc(Cl)ccc32)CC1`, the TGI was determined as 30.4 µM in the experiment with HCC-2998 colon; 49.7 µM in the experiment with HS 578T breast; 30.6 µM with SN12C renal; 43.1 µM in the experiment on OVCAR-5 ovarian; 37.2 µM with UACC-62 melanoma; 34.9 µM in the experiment with MCF7 breast. Moreover, the TGI in the experiment with 786-0 renal worked out at 30 µM; in the experiment with NCI-H23 lung, 31.2 µM; in the experiment with K-562 leukemia, 65 µM; with MDA-MB-231 breast, 37.4 µM.

Take `c1ccc(-c2nc(N3CCOCC3)c3c4c(sc3n2)CCCCCC4)nc1`: the GI50 with HCC-2998 colon is 6.99 µM; in the experiment on HS 578T breast, 3.37 µM; in the experiment with SN12C renal, 5 µM; in the experiment with OVCAR-5 ovarian, 10.3 µM; in the experiment on UACC-62 melanoma, 3.44 µM; in the experiment on MCF7 breast it was 3.04 µM. In addition, the GI50 in the experiment with 786-0 renal is 11.7 µM; with NCI-H23 lung, 5.99 µM; in the experiment with K-562 leukemia, 3.47 µM; in the experiment on MDA-MB-231 breast it was 7.43 µM. The TGI in the experiment on HCC-2998 colon is 19.8 µM; with HS 578T breast, 42.3 µM; with SN12C renal it was 29.4 µM; in the experiment on OVCAR-5 ovarian it was 26.5 µM; in the experiment on UACC-62 melanoma, 14.3 µM; with MCF7 breast, 12.8 µM. The TGI is 32.8 µM in the experiment with 786-0 renal, 26.5 µM in the experiment on NCI-H23 lung, 23.7 µM with K-562 leukemia and 25.9 µM in the experiment with MDA-MB-231 breast.
